The source of these data is patent US9532961B2, “Method and kit for administering γ-glutamyl-D-cysteine for the prevention of reperfusion injury following ischemic stroke” (Rosalind Franklin University of Medicine and Science, priority 2005, dated 2017).

“Also recorded” adds a separate entry of the source.

One experiment has as its target T1, Na/Ca exchange (Homo sapiens, UniProt P32418).
T1 construct: host or cells: cardiac and renal tissues (as cited)
The following applies: cardiac and renal tissues (ref. 26); cited from earlier work.

For experiment [1], the system named is cultured bovine blood-brain barrier endothelial cells. Kind of experiment: Intracellular calcium (Fluo-4 fluorescence) in cultured blood-brain barrier cells under simulated ischemia-reperfusion. It is filed as cell-based. The following applies: 20 μM KB-R7943 (reverse Na/Ca exchange inhibition), methanesulphonate. As for the experimental part: FIG. 4 is a bar graph of data showing that when cerebral capillary endothelial cells are exposed to ischemic conditions, intracellular calcium concentration increases and remains elevated during reperfusion; the elevation in intracellular calcium is prevented by pharmacological inhibition of the Na/H antiporter. Cultured bovine blood-brain barrier cells were treated as described above (FIG. 2). […] The rise in intracellular calcium observed during reperfusion was prevented by inhibiting Na/H antiport (100 μM DMA). *P<0.05 compared to control. +P<0.05 compared to reperfusion. Values are mean±SD. Intracellular calcium was measured with fluorescent imaging, using Fluo-4.
FIG. 5 is a bar graph of data showing that when cerebral capillary endothelial cells are exposed to ischemic conditions, intracellular calcium concentration increases and remains elevated during reperfusion; the elevation in intracellular calcium is prevented by pharmacological inhibition of reverse movement of the Na/Ca exchanger. Cultured bovine blood-brain barrier cells were treated as described above (FIG. 2). […] The rise in intracellular calcium observed during reperfusion was prevented by inhibiting reverse movement of Na/Ca exchange (20 μM KB-R7943). *P<0.05 compared to control. +P<0.05 compared to reperfusion. Values are mean±SD. Intracellular calcium was measured with fluorescent imaging, using Fluo-4. […]

A further experiment relates to heart and kidney. The following applies: heart and kidney (refs. 29, 45); cited from earlier work.

Consider `CS(=O)(=O)O.N=C(N)SCCc1ccc(OCc2ccc([N+](=O)[O-])cc2)cc1` [KB-R7943, 2-[2-[4-(4-nitrobenzyloxy)phenyl]ethyl]isothiourea methanesulphonate], for which, on Na/Ca exchange, the “direction selectivity of Na/Ca exchange inhibition” value was “greater affinity for suppressing movement in the reverse direction” and the “effect on Na/Ca exchange” value is recorded as “inhibits Na/Ca exchange”. The “rise in intracellular calcium observed during reperfusion” value in experiment [1] was “prevented; also recorded: inhibits the rise in intracellular calcium”. For the same compound, in the experiment with heart and kidney, the “cytoprotection under conditions of ischemia and reperfusion” value is listed as “cytoprotective”.
